Assay results as given in patent US20250195508A1, “COMPOUNDS AND COMPOSITIONS FOR ANITMALARIAL THERAPEUTIC AND PROPHYLACTIC USE” (UNIVERSITY OF CENTRAL FLORIDA RESEARCH FOUNDATION, INC., priority 2022, published 2025).
Entries after “also recorded” stand apart in the source; their conditions may differ.

How the values were obtained:
HepG2 human liver cell = assay: CellTiter 96 AQueous MTS cytotoxicity counter-screen (selectivity index); format: cell-based
Method: To establish the utility of kinase inhibitor compounds synthesized in the Gray laboratory as a source of novel antimalarial activities, the libraries (containing 1,100 compounds) were screened using the well-established SYBR Green I-based fluorescence assay as known in the art. This screen yielded 34 compounds with EC50<500 nM in the CQ^R Dd2 strain. These hits were subjected to counter-screening against human HepG2 cells using CellTiter 96® AQueous (Promega™) MTS-based cell proliferation assay to identify asexual and liver stage antiplasmodial hits.
P. falciparum Dd2 EC50 was determined using SYBR Green I assay. For the selectivity index ([…]) cytotoxicity was determined using CellTiter 96® AQueous MTS. The liver stage assay was performed using P. berghei luciferase expressing parasites. All assays were performed with technical quadruplicates and 3 biological replicates. Assays have a Z′ factor >0.7.

[1] = test system: P. berghei luc sporozoites (Pb-Luc); assay: Prophylaxis assay, single IV dose 6 hours before Pb-Luc sporozoite infection; format: in vivo, mice
Method: (§1) TL5-135 was dissolved or resuspended in a suspending vehicle consisting of 30% DMSO, 1% methylcellulose, 0.5% TWEEN-80, and 68.5% ultrapure water. GNF179 was resuspended in 30% DMSO, 30% PEG400, 5% TWEEN-80, 35% saline, and administered intravenously.
(§2) For prophylaxis assays, a single dose of […] was administrated 6 hours before infection. For therapeutic assays, in a 4-day's Peters test, 4 doses (each 15 mg/kg) were administrated 6, 18, 30, and 42 hours post infection.
(§3) The antimalarial activity was measured as a percent reduction in parasitemia from day one until day twelve post-infection.
Infection was initiated using 100,000 P. berghei luc sporozoites (Pb-Luc). The drugs were administered IV at 50 mg/kg, single dose 6 hours prior. I: infected, UI: uninfected.
(§4) Groups of 5 mice were infected with 100,000 Pb-Luc sporozoites by IV injection. Prophylactic (single dose of 50 mg/kg through IV injection, 6 hour before infection) and therapeutic (4-day Peters test, 4 doses of 15 mg/kg each time were administrated post-infection at 6, 18, 30, and 42 hours post infection (hpi) and the activity of the compounds was evaluated. See FIG. 8A. The parasitemia was estimated after flow cytometric enumeration of rodent malaria parasite Pb-Luc-infected red blood cells (RBS) stained with SYBR Green I, from day 3 until 20.
(§5) TL5-135 and GNF179 antimalarial compounds were tested against Pb-Luc sporozoites. Prophylactic activity (single dose of 15 mg/kg through an IV injection, 6 hours before infection) and therapeutic activity (4-day Peters test, 4 doses of 15 mg/kg each time was administrated at 6, 18, 30, and 42 hpi of the TL5-135 antimalarial compound was evaluated. As before, groups of five mice were infected with 100,000 Pb-Luc sporozoites by IV injection. The parasitemia was estimated after flow cytometric enumeration of rodent malaria parasite Pb-Luc-infected red blood cells (RBS) stained with SYBR Green I, from day 3 until day 20. See FIG. 8B.

in vitro = in vitro ADME; details: mouse liver microsomes; read-out: t1/2 in mouse liver microsomes
Pb-Luc sporozoites = assay: Therapeutic assay, 4-day Peters test against Pb-Luc sporozoites; format: in vivo, mice; details: therapeutic, 4 doses of 15 mg/kg
Method: as §1, §2, §3
However, the mice treated with TL5-135 as a therapeutic had about 2.4% parasitemia after 12 days post-infection (all negative control mice died between days 11-13). The parasitemia on day 21 (21 days post-infection) for the group of mice was 35%.
as §4, §5

recombinant human EPHA2 = recombinant human EPHA2 (Homo sapiens (Human), UniProt P29317); assay: Z′-LYTE FRET-based in vitro biochemical kinase assay; details: recombinant human EPHA2 expressed in insect cells; read-out: Human EPHA2 IC50 (nM) ± SD
Method: Several analogs were synthesized based on the structure of TL5-135 for further study. […] For the data in Table 1, compounds were subjected to in vitro biochemical kinase assays done using recombinant human ephrin type-A receptor 2 (EPHA2) (expressed in insect cells) in a Z′-LYTE® FRET-based kinase assay. P. falciparum Dd2 EC50 was determined using the standard 72 hour SYBR Green I assay (Dd2 Proliferation Assay) as known in the art. […] The structures of compoundsTL5-134, TL5-139, and TL5-145 are shown below.
In vitro biochemical kinase assays were done using recombinant human EPHA2 (expressed in insect cells) in a Z′-LYTE® FRET-based kinase assay. P. falciparum Dd2 EC50 was determined using the standard 72 h SYBR Green I assay.

recombinant human EPHA2, sequence (P29317 24-976): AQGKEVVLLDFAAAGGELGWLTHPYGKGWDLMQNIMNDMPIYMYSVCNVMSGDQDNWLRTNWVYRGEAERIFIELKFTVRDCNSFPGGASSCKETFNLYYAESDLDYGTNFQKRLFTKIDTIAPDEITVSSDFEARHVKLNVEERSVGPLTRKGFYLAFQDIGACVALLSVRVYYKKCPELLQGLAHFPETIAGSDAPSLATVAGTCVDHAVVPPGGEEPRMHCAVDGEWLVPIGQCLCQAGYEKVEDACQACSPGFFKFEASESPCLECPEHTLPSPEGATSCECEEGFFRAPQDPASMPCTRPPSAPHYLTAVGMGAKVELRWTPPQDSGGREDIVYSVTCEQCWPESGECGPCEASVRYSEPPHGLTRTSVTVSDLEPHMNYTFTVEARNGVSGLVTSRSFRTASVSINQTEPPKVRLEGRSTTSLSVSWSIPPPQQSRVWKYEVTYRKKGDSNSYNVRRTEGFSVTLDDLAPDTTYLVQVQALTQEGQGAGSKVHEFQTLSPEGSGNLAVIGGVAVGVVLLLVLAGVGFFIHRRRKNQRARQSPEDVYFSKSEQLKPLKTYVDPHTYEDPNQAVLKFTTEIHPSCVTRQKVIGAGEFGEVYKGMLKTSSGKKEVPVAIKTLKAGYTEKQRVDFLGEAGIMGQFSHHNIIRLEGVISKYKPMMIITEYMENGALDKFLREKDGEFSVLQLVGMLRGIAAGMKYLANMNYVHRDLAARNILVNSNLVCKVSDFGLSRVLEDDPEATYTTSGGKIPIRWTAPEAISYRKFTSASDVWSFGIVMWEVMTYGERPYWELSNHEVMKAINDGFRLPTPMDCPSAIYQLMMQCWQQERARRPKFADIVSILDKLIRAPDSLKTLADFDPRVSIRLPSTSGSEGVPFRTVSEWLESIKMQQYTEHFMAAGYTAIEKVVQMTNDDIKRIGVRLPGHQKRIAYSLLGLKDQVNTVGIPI

## CCN1CCN(Cc2ccc(NC(=O)c3cc(Cl)cc(NC(=O)c4cncc(-c5cccs5)c4)c3)cc2C(F)(F)F)CC1 [TL5-135]
HepG2 human liver cell
  Selectivity Index (SI): 116
[1]; single dose 15 mg/kg 6 hours before infection, after 22 days
  Condition of mice after prophylactic treatment: still healthy and alive
[1]; single dose 50 mg/kg IV 6 hours prior to infection with 100,000 Pb-Luc sporozoites
  Prophylactic activity: has prophylactic activity; also recorded: prevent infection
In vitro
  half-life: 1.32 h
Pb-Luc sporozoites; 12 days post-infection
  Parasitemia 12 days post-infection: about 2.4%
Pb-Luc sporozoites; 21 days post-infection
  Parasitemia on day 21: 35%
Recombinant human EPHA2
  IC50: > 10000 nM
